Experimental data reported in US20250059140A1, “C19 D[…], AND PREPARATION METHOD AND APPLICATION THEREOF” (SOUTHWEST JIAOTONG UNIVERSITY, priority 2022, published 2025).
Entries after “also recorded” stand apart in the source; their conditions may differ. Read-outs that look alike come from different tables or passages of the source.

Tests used:
isolated bullfrog hearts = assay: Cardiotonic effect on isolated bullfrog hearts in vitro; conditions: for activation at 5000 µM: isolated bullfrog heart, tested concentration 0.005 mol/L; for Cardiotonic effect compared with the positive control: 0.005 mol/L versus positive control at 0.01 mol/L; for Average increase rate (%) (average amplitude growth rate of the frog heart) / Results (class of heart-strengthening effect): positive control
Protocol: The preparation of in vitro isolated bullfrog heart was carried out according to the method recorded in the literature (Ding Hong, Experimental Pharmacology, pp. 504-506, Science Publishing House, 2008) as follows. Bullfrogs weighing 150-200 g, male and female, were used herein. At room temperature, the brain and spinal cord of the bullfrogs was destroyed with a metal probe, and then the chest wall of the bullfrogs was incised to expose the heart and the right aorta and the left aorta were each threaded with a wire. The right aorta was knotted directly, and the left aorta was cut with scissors in a “V” shaped incision. A frog heart cannula containing a small amount of Ringer's solution was inserted into the ventricle. The wire of the left aorta was attached and secured to the lateral hook of the cannula. The blood in the heart tube of the bullfrogs was repeatedly flushed with fresh Ringer's solution until the fluid was clear and colorless. The heart cannula was inserted into the ventricle and perfused with Ringer's solution. The bullfrog heart cannula was fixed on the iron stand with a clamp. The muscle tension transducer was fixedly arranged under the bullfrog heart cannula, and the isolated bullfrog heart was connected to the muscle tension transducer via a bullfrog heart clip and a wire. The volume of solution in the cannula was adjusted by 1.0 mL and the subject compound or an equivalent volume of a solvent was added to the cannula. The subject compound was evaluated for cardiac activity on isolated perfused frog hearts, and heart rate and contraction amplitude were recorded.
The cardiotonic effects of compounds 1-10 provided in the present disclosure on isolated bullfrog hearts in vitro were investigated, with deacetylmaurolidine and mesaconitine as positive controls.
The tested concentration of compounds 1-10 was 0.005 mol/L, and the tested concentrations of the positive controls, i.e., mesaconitine and deacetylmaurolidine, were 0.01 mol/L and 0.0002 mol/L, respectively.

Ca2+/Mg2+-ATPase = Ca2+/Mg2+-ATPase activity in hypoxic cardiomyocytes (kit); type: cell-based; conditions: concentration of 25 mol/L; CoCl2-induced hypoxia in H9c2 cells
Protocol: (§1) FIGS. 1B-C show an effect of the compound 1 on the Na^+/K^+-ATPase specific activity and Ca^2+/Mg^2+-ATPase activity of the hypoxic cardiomyocytes, where the test is performed in triplicate; ##P<0.01, ###P<0.001, and ####P<0.0001, indicating the significant difference from the control group; and *P<0.05, **P<0.01, ***P<0.001, and ****P<0.0001, indicating the significant difference from the CoCl2 group;
(§2) When cells experienced hypoxic injury, a large amount of reactive oxygen species (ROS) was released. DCFH-DA probe was used to label ROS in H9c2 cells, and 900 μM CoCl2 and different concentrations of cammconine (12.5, 25, 50 PM) were administered to detect the changes in ROS by flow cytometry and fluorescence inverted microscopy. […] Changes in ATPase activity after treating the cells with myocardial hypoxia with cammaconine were detected by a kit. […] Changes in the transcriptional level of the cardiomyocyte hypoxia key indicator HIF-1α and calcium cycle-related indicators were detected by qPCR.

NCX = assay: qPCR transcriptional level of NCX in CoCl2-hypoxic H9c2 cells; type: cell-based; conditions: CoCl2-induced hypoxia in H9c2 cells, FIG. 2E
Protocol: (§3) FIGS. 2B-F show transcriptional level results (detected by q-PCR) of calcium channel-related indicators in cardiomyocytes, where 2B: DHPR; 2C: RyR2; 2D: SERCA2a; 2E: NCX; and 2F: NHE.
(§4) In FIGS. 2A-F, the detection is performed in triplicate; ##P<0.01, ###P<0.001, and ####P<0.0001, indicating the significant difference from the control group; and *P<0.05, **P<0.01, ***P<0.001, and ****P<0.0001, indicating the significant difference from the CoCl2 group.
as §2

RyR2 = assay: qPCR transcriptional level of RyR2 in CoCl2-hypoxic H9c2 cells; type: cell-based; conditions: CoCl2-induced hypoxia in H9c2 cells, FIG. 2C
Protocol: as §3, §4, §2

[1] = tested on: reactive oxygen species (ROS) in H9c2 cells; assay: ROS detection with DCFH-DA probe in CoCl2-hypoxic H9c2 cells; type: cell-based; conditions: 12.5, 25, 50 PM; 900 μM CoCl2; flow cytometry and fluorescence microscopy
Protocol: FIGS. 1D-I show fluorescence detection results of reactive oxygen species (ROS) of different groups of H9c2 cells (scale bar: 20 μm), where 1D: control group; 1E: CoCl2 group; 1F: 50 μM-Trimetazidine group; 1G: 12.5 μM-Cammaconine group; 1H: 25 μM-Cammaconine group; and 11:50 μM-Cammaconine group;
as §2

DHPR = assay: qPCR transcriptional level of DHPR in CoCl2-hypoxic H9c2 cells; type: cell-based; conditions: CoCl2-induced hypoxia in H9c2 cells, FIG. 2B
Protocol: as §3, §4, §2

SERCA2a = assay: qPCR transcriptional level of SERCA2a in CoCl2-hypoxic H9c2 cells; type: cell-based; conditions: CoCl2-induced hypoxia in H9c2 cells, FIG. 2D
Protocol: as §3, §4, §2

Na+/K+-ATPase = Na+/K+-ATPase activity in hypoxic cardiomyocytes (kit); type: cell-based; conditions: concentration of 25 mol/L; CoCl2-induced hypoxia in H9c2 cells
Protocol: as §1, §2

NHE = assay: qPCR transcriptional level of NHE in CoCl2-hypoxic H9c2 cells; type: cell-based; conditions: CoCl2-induced hypoxia in H9c2 cells, FIG. 2F
Protocol: as §3, §4, §2

HIF-1α = assay: qPCR transcriptional level of HIF-1α in CoCl2-hypoxic H9c2 cells; type: cell-based; conditions: CoCl2-induced hypoxia in H9c2 cells, FIG. 2A
Protocol: as §4, §2

H9c2 cells = assay: H9c2 cell viability by MTT assay, CoCl2-induced myocardial hypoxia; type: cell-based; conditions: concentration of 6.25-50 M, FIG. 1A
[2] = read-out: Average increase rate (%) (average amplitude growth rate of the frog heart)
[3] = read-out: Results (class of heart-strengthening effect)
[4] = tested concentration 0.0002 mol/L
[5] = tested concentration 0.01 mol/L

Compound	activation at 5000 µM (isolated bullfrog hearts; [2]) [%]	activation at 5000 µM (isolated bullfrog hearts; [3]) [%]	Cardiotonic effect compared with the positive control (isolated bullfrog hearts)	other results
CCO[C@]12C[C@H](OC)[C@H]3CC(C1[C@H]3OC)[C@]13C4CC2[C@H]1N(CC)C[C@]4(CO)CC[C@@H]3OC (stereo partly drawn) [Compound 9, 8-O-ethyl, 14-O-methyl cammaconine]	21.8	16 to 30		
CO[C@H]1C[C@@]2(O)C3C(C[C@H]1[C@@H]3O)[C@]13C4CC2[C@H]1N(C)C[C@]4(CO)CC[C@@H]3OC (stereo partly drawn) [Compound 2, N-deethyl-N-methyl cammaconine]	159	> 60	better cardiotonic effect; also recorded: significantly enhanced	
deacetylmaurolidine [reference compound]				Average increase rate (%) (average amplitude growth rate of the frog heart) (isolated bullfrog hearts; [4]): 61%; Results (class of heart-strengthening effect) (isolated bullfrog hearts; [4]): Strong (>60% (+++, strong))
CCN1C[C@]2(CO)CC[C@H](OC)[C@@]34C5C[C@@H]6[C@@H](OC)C[C@@](OC)(C5[C@H]6O)C(CC23)[C@@H]14 (stereo partly drawn) [Compound 5, 8-O-methyl cammaconine]	33.6	31 to 60		
COC[C@]12CN(C)[C@@H]3[C@@H]4[C@H](OC)[C@H]1[C@@]3([C@@H](OC)C[C@H]2O)[C@@H]1C[C@@]2(O)[C@H](OC(=O)c3ccccc3)[C@@H]1[C@]4(OC(C)=O)[C@@H](O)[C@@H]2OC [Mesaconitine, mesaconitine, reference compound]				Average increase rate (%) (average amplitude growth rate of the frog heart) (isolated bullfrog hearts; [5]): 70.7%; Results (class of heart-strengthening effect) (isolated bullfrog hearts; [5]): Strong (>60% (+++, strong))
CCO[C@]12C[C@H](OC)[C@H]3CC(C1[C@H]3O)[C@]13C4CC2[C@H]1N(CC)C[C@]4(CO)CC[C@@H]3OC (stereo partly drawn) [Compound 8, 8-O-ethyl cammaconine]	57.2	31 to 60		
CO[C@H]1C[C@@]2(O)C3C(C[C@H]1[C@@H]3O)[C@]13C4CC2[C@H]1NC[C@]4(CO)CC[C@@H]3OC (stereo partly drawn) [Compound 3, N-deethyl cammaconine]	36.8	31 to 60		
CCN1C[C@]2(CO)CC[C@H](OC)[C@@]34C5C[C@@H]6[C@@H](OC)C[C@@](O)(C5[C@H]6OC)C(CC23)[C@@H]14 (stereo partly drawn) [Compound 4, scaconine]	156	> 60	better cardiotonic effect; also recorded: significantly enhanced	
CCN1C[C@]2(CO)CC[C@H](OC)[C@@]34C5C[C@@H]6[C@@H](OC)C[C@@](OC)(C5[C@H]6OC)C(CC23)[C@@H]14 (stereo partly drawn) [Compound 6, 8,14-O-dimethyl cammaconine]	31.2	31 to 60		
CCN1C[C@]2(CO)CC[C@H](OC)[C@@]34C5C[C@@H]6[C@@H](OC)C[C@@](O)(C5[C@H]6O)C(CC23)[C@@H]14 (stereo partly drawn) [Compound 1, cammaconine]	118	> 60	better cardiotonic effect; also recorded: significantly enhanced	Ca2+/Mg2+-ATPase activity (Ca2+/Mg2+-ATPase): increase the enzyme activity; mRNA level of NCX (NCX): decreased; mRNA level of RyR2 (RyR2): decreased; Levels of ROS in H9c2 cells [1]: significantly reduced; mRNA level of DHPR (DHPR): decreased; mRNA level of SERCA2a (SERCA2a): decreased; Na+/K+-ATPase activity (Na+/K+-ATPase): increase the enzyme activity; mRNA level of NHE (NHE): decreased; mRNA transcriptional level of HIF-1α (HIF-1α): decreased; Cardioprotective effect on H9c2 cells (cell viability, MTT) (H9c2 cells): certain cardioprotective effects
CO[C@H]1C[C@@]2(O)C3C(C[C@H]1[C@@H]3OC)[C@]13C4CC2[C@H]1N(C)C[C@]4(CO)CC[C@@H]3OC (stereo partly drawn) [Compound 10, N-deethyl-N-methyl 14-O-methyl cammaconine]	148	> 60	better cardiotonic effect; also recorded: significantly enhanced	
CCN1C[C@]2(CO)CC[C@H](OC)[C@@]34C5C[C@H]6[C@H](O)C5[C@](O)(C[C@@H]6O)C(CC23)[C@@H]14 (stereo partly drawn) [Compound 7, 16-demethyl cammaconine]	75.2	> 60	better cardiotonic effect; also recorded: significantly enhanced	
